Measured values taken from patent US20100256357A1, “HETEROCYCLES USEFUL AS INHIBITORS OF CARBONIC ANHYDRASE” (Agouron Pharmaceuticals, Inc., priority 2006, published 2010).
Where two headings read alike, the source gives them in different places.

Legend:
human CA-II [1] = target: T1, human CA-II (Homo sapiens, UniProt P00918); experiment: Carbonic Anhydrase-II (CA-II) Fluorescence Polarization Tight Binding Assay-Kd Determination; conditions: inhibitor concentration 2.5 nM
T1 construct: purchased Sigma-Aldrich C6165
Method: Assays were conducted in a final volume of 100 μL in 50 mM Tris/HCl (pH 7.6), 100 mM Na2SO4 and 0.005% Tween-20 in a 96-well black assay plate. […] The assay plate was
The Kd binding was calculated using GraphPad Prism and Morrison tight binding ligand equation.

human CA-II [2] = target: T1, human CA-II; experiment: Carbonic Anhydrase-II (CA-II) Fluorimetric Assay-IC50 Determination; type: biochemical; conditions: for IC50: Kd ND, read-out: CA-II IC50
Outline: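 Compounds were tested as an 11-point, 1:3 dilution series in duplicate, with a top final concentration of 1 μM, in 50 mM Tris/HCl pH 7.6, 100 mM Na2SO4 and 0.005% Tween-20. Human CA-II activity was followed as the rate of fluorescein diacetate hydrolysis at 25° C, with excitation at 488 nm and emission at 538 nm.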

human CA-IV = target: T2, human CA-IV (Homo sapiens, UniProt P22748); experiment: Carbonic Anhydrase-IV (CA-IV) Fluorescence Polarization Assay-IC50 Determination; type: binding; conditions: for inhibition at 0.2 µM: CA-IV Min dose 200 nM, read-out: CA-IV: % Inh @ Min dose; for IC50: read-out: CA-IV IC50
T2 construct: made in house; host or cells: Escherichia coli BL21(DE3)
T2 sequence (P22748 19-284 limits assumed): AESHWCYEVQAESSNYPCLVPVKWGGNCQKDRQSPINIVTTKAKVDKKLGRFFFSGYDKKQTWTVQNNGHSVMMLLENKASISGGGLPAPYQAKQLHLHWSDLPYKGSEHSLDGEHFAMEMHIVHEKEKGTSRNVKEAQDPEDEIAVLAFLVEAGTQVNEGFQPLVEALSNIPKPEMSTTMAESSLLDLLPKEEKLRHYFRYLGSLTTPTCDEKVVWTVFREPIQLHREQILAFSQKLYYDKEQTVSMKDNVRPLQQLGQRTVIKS
Method: Carbonic Anhydrase-IV (CA-IV) Fluorescence Polarization Assay-IC50 Determination
These cells were grown in Luria broth (LB) media (Biomyx) supplemented with 800 uM ZnCl2 at 37° C. until an O.D.600 of 0.7, at which point the cells were induced with 100 uM isopropyl-beta-D-thiogalactopyranoside (IPTG) for 20 hours at 20° C. The frozen pellet was resuspended in 50mM 2-morpholinoethanesulfonic acid (MES) at pH 6.0, 100 mM NaCl, 800 uM ZnCl2 and EDTA-Free protease inhibitors (Roche). The cells were lysed with a microfluidizer, the lysate was spun at 40,000 rpm for 45 minutes at 4° C., and the soluble fraction was dialyzed overnight at 4° C. in 50 mM MES pH 6.0, and 100 mM NaCl. The soluble fraction was then put over a 100 ml SP-Sepharose High Performance (GE Healthcare) column and eluted with a 50 mM MES pH 6.0, 750 mM NaCl gradient. The peak fractions were then concentrated, via an Amicon Ultra-4 10,000 MWCO (Millipore) spin column to 2.0 mL and loaded onto a Sephacryl S-100 High Resolution (GE Healthcare) column in 25 mM tris(hydroxymethyl)aminomethane hydrochloride (Tris-HCl) pH 7.0, and 100 mM NaCl. The peak fractions were then concentrated, via an Amicon Ultra-4 10,000 MWCO (Millipore) spin column, to 7.0 mg/mL and left exposed at room temperature overnight. […] T.; et al. Carbonic Anhydrase Inhibitors. Med. Res. Rev. […]
Assays were conducted in a final volume of 100 μL in 50 mM Tris/HCl (pH 7.6), 100 mM Na2SO4 and 0.005% Tween-20 in a 96-well black assay plate.

[3] = CA II Min dose 100 nM, read-out: CAII % Inh @ Min dose

Structure (SMILES) | inhibition at 0.0025 µM (human CA-II [1]) | inhibition at 0.1 µM (human CA-II [2]; [3]) | inhibition at 0.1 µM (human CA-II [2]; read-out: CA-II % at 100 nM) | inhibition at 0.2 µM (human CA-IV) | IC50 (human CA-IV) | IC50 (human CA-II [2])
CCCCCN(CCO)C(=O)c1nc(Cc2ccccc2)n(-c2ccc(S(N)(=O)=O)cc2)n1 [Example R-16, 1-[4-(aminosulfonyl)phenyl]-5-benzyl-N-(2-hydroxyethyl)-N-pentyl-1H-124-triazole-3-carboxamide] |  | 100% | 100% | 61.3% | 0.22 µM | 
NS(=O)(=O)c1ccc(-n2nc(C(=O)N3CCCCC3)nc2Cc2ccccc2)cc1 [Example R-24, 4-[5-benzyl-3-(piperidin-1-ylcarbonyl)-1H-124-triazol-1-yl]benzenesulfonamide] |  | 99% |  | 48.6% | 0.36 µM | 0.00373 µM
NS(=O)(=O)c1ccc(-n2nc(C(=O)N3CCc4ccccc4CC3)nc2Cc2ccccc2)cc1 [Example R-4, 4-[5-benzyl-3-(1245-tetrahydro-3H-3-benzoazepin-3-ylcarbonyl)-1H-124-triazol-1-yl]benzenesulfonamide] |  | 100% |  | 74.3% | 0.115 µM | 0.0034 µM
NS(=O)(=O)c1ccc(-n2nc(C(=O)N3CC(Oc4ccccc4)C3)nc2Cc2ccccc2)cc1 [Example R-15, 4-(5-benzyl-3-[(3-phenoxyazetidin-1-yl)carbonyl]-1H-124-triazol-1-yl)benzenesulfonamide] |  | 96% | 96% | 60.9% | 0.22 µM | 
CN(CCC#N)C(=O)c1nc(Cc2ccccc2)n(-c2ccc(S(N)(=O)=O)cc2)n1 [Example R-10] |  | 99% | 99% | 58% | 0.202 µM | 
CC(=O)N1CCCN(C(=O)c2nc(Cc3ccccc3)n(-c3ccc(S(N)(=O)=O)cc3)n2)CC1 [Example R-18, 4-(3-[(4-acetyl-14-diazepan-1-yl)carbonyl]-5-benzyl-1H-124-triazol-1-yl)benzenesulfonamide] |  | 96% | 98% | 56.9% | 0.274 µM | 
CCN(CCCCO)C(=O)c1nc(Cc2ccccc2)n(-c2ccc(S(N)(=O)=O)cc2)n1 [Example R-19, 1-[4-(aminosulfonyl)phenyl)-5-benzyl-N-ethyl-N-(4-hydroxybutyl)-1H-124-triazole-3-carboxamide] |  | 99% |  | 50.2% | 0.306 µM | 0.00355 µM
CCCN(CC1CC1)C(=O)c1nc(Cc2ccccc2)n(-c2ccc(S(N)(=O)=O)cc2)n1 [Example R-5, 1-[4-(aminosulfonyl)phenyl]-5-benzyl-N-(cyclopropylmethyl)-N-propyl-1H-124-triazole-3-carboxamide] |  | 100% |  | 66.4% | 0.167 µM | 0.00218 µM
NS(=O)(=O)c1ccc(-n2nc(C(=O)N3CCOc4ccccc4C3)nc2Cc2ccccc2)cc1 [Example R-7, 4-[5-benzyl-3-(23-dihydro-14-benzoxazepin-4(5H)-ylcarbonyl)-1H-124-triazol-1-yl]benzenesulfonamide] |  | 101% |  | 59.1% | 0.182 µM | 0.00368 µM
CN(CC(O)c1ccccc1)C(=O)c1nc(Cc2ccccc2)n(-c2ccc(S(N)(=O)=O)cc2)n1 (stereo not shown) [Example R-9, 1-[4-(aminosulfonyl)phenyl]-5-benzyl-N-(2-hydroxy-2-phenylethyl)-N-methyl-1H-124-triazole-3-carboxamide] |  | 99% | 99% | 58% | 0.198 µM | 
CCCCN(CC)C(=O)c1nc(Cc2ccccc2)n(-c2ccc(S(N)(=O)=O)cc2)n1 [Example R-14, 1-(4-(aminosulfonyl)phenyl]-5-benzyl-N-butyl-N-ethyl-1H-124-triazole-3-carboxamide] |  | 100% | 100% | 59.7% | 0.215 µM | 

Continued, values first:

inhibition at 0.0025 µM (human CA-II [1]) | inhibition at 0.1 µM (human CA-II [2]; [3]) | inhibition at 0.1 µM (human CA-II [2]; read-out: CA-II % at 100 nM) | inhibition at 0.2 µM (human CA-IV) | IC50 (human CA-IV) | IC50 (human CA-II [2]) | Structure (SMILES)
41% |  |  |  |  |  | NS(=O)(=O)c1ccc(-n2nc(CNC3Cc4ccccc4C3)nc2Cc2ccccc2)c(F)c1 [Example T-76, 4-{5-benzyl-3-[(23-dihydro-1H-inden-2-ylamino)methyl]-1H-124-triazol-1-yl}-3-fluorobenzenesulfonamide]
52% |  |  |  |  |  | Cc1cccc(CCNCc2nc(Cc3ccccc3)n(-c3ccc(S(N)(=O)=O)cc3F)n2)c1 [Example T-66, 4-[5-benzyl-3-({[2-(3-methylphenyl)ethyl]amino}methyl)-1H-124-triazol-1-yl]-3-fluorobenzenesulfonamide]
40% |  |  |  |  |  | NS(=O)(=O)c1ccc(-n2nc(CNCCc3ccccc3)nc2Cc2ccccc2)c(F)c1 [Example T-61, 4-(5-benzyl-3-{[(2-phenylethyl)amino]methyl}-1H-124-triazol-1-yl)-3-fluorobenzenesulfonamide]
68% |  |  |  |  |  | NS(=O)(=O)c1ccc(-n2nc(CNC3CCCCC3)nc2Cc2ccccc2)c(F)c1 [Example T-69, 4-{5-benzyl-3-[(cyclohexylamino)methyl]-1H-124-triazol-1-yl}-3-fluorobenzenesulfonamide]
49% |  |  |  |  |  | NS(=O)(=O)c1ccc(-n2nc(CN[C@H](CO)Cc3ccccc3)nc2Cc2ccccc2)c(F)c1 [Example T-44, 4-[5-benzyl-3-({[(1S)-1-benzyl-2-hydroxyethyl]amino}methyl)-1H-124-triazol-1-yl]-3-fluorobenzenesulfonamide]
50% |  |  |  |  |  | NS(=O)(=O)c1ccc(-n2nc(CNCCc3cccc(F)c3)nc2Cc2ccccc2)c(F)c1 [Example T-48, 4-[5-benzyl-3-({[2-(3-fluorophenyl)ethyl]amino}methyl)-1H-124-triazol-1-yl]-3-fluorobenzenesulfonamide]
51% |  |  |  |  |  | COc1ccc(CCNCc2nc(Cc3ccccc3)n(-c3ccc(S(N)(=O)=O)cc3F)n2)cc1 [Example T-62, 4-[5-benzyl-3-({[2-(4-methoxyphenyl)ethyl]amino}methyl)-1H-124-triazol-1-yl]-3-fluorobenzenesulfonamide]
55% |  |  |  |  |  | Cc1ccn(CCNCc2nc(Cc3ccccc3)n(-c3ccc(S(N)(=O)=O)cc3F)n2)n1 [Example T-68, 4-[5-benzyl-3-({[2-(3-methyl-1H-pyrazol-1-yl)ethyl]amino}methyl)-1H-124-triazol-1-yl]-3-fluorobenzenesulfonamide]
51% |  |  |  |  |  | CCC(NCc1nc(Cc2ccccc2)n(-c2ccc(S(N)(=O)=O)cc2F)n1)c1ccccc1 (stereo not shown) [Example T-75, 4-(5-benzyl-3-{[(1-phenylpropyl)amino]methyl}-1H-124-triazol-1-yl)-3-fluorobenzenesulfonamide]
41% |  |  |  |  |  | CCOc1ccccc1CNCc1nc(Cc2ccccc2)n(-c2ccc(S(N)(=O)=O)cc2F)n1 [Example T-63, 4-(5-benzyl-3-{[(2-ethoxybenzyl)amino]methyl}-1H-124-triazol-1-yl)-3-fluorobenzenesulfonamide]
38% |  |  |  |  |  | NS(=O)(=O)c1ccc(-n2nc(CNCCOc3ccccc3F)nc2Cc2ccccc2)c(F)c1 [Example T-54]
54% |  |  |  |  |  | CN(CCn1cccn1)Cc1nc(Cc2ccccc2)n(-c2ccc(S(N)(=O)=O)cc2F)n1 [Example T-38, 4-[5-benzyl-3-({methyl[2-(1H-pyrazol-1-yl)ethyl]amino}methyl)-1H-124-triazol-1-yl]-3-fluorobenzenesulfonamide]
57% |  |  |  |  |  | NS(=O)(=O)c1ccc(-n2nc(CNC[C@@H](O)c3ccccc3)nc2Cc2ccccc2)c(F)c1 [Example T-46, 4-[5-benzyl-3-({[(2S)-2-hydroxy-2-phenylethyl]amino}methyl)-1H-124-triazol-1-yl]-3-fluorobenzenesulfonamide]
50% |  |  |  |  |  | COc1cccc(CCNCc2nc(Cc3ccccc3)n(-c3ccc(S(N)(=O)=O)cc3F)n2)c1 [Example T-73, 4-[5-benzyl-3-({[2-(3-methoxyphenyl)ethyl]amino}methyl)-1H-124-triazol-1-yl]-3-fluorobenzenesulfonamide]
